The source of these data is US20090253671A1, “TRICYCLIC DERIVATIVES OF AZETIDINE AND PYRROLE WITH ANTIBACTERIAL ACTIVITY” (ASTRAZENECA AB, priority 2005, published 2009).

≈ marks a conversion by molar mass, not a printed value.

What all share (test): Bacterial susceptibility testing in liquid media (MIC)
Assay type in all cases: cell-based

Experiment [1] concerns SAU516. As to conditions: strain SAU516; lowest concentration reducing growth by 80% or more, 37 degrees C., 24 hrs. The method, then: (§1) Compounds were tested for antimicrobial activity by susceptibility testing in liquid media. Compounds were dissolved in dimethylsulfoxide and tested in 10 doubling dilutions in the susceptibility assays. The organisms used in the assay were grown overnight on suitable agar media and then suspended in a liquid medium appropriate for the growth of the organism. The suspension was a 0.5 McFarland and a further 1 in 10 dilution was made into the same liquid medium to prepare the final organism suspension in 100 μL. Plates were incubated under appropriate conditions at 37 degrees C. for 24 hrs prior to reading. The Minimum Inhibitory Concentration was determined as the lowest drug concentration able to reduce growth by 80% or more.

The subject of experiment [2] is HIN446. As to conditions: strain HIN446; lowest concentration reducing growth by 80% or more, 37 degrees C., 24 hrs. Here is the method:
as §1

Experiment [3] has as its system Streptococcus pneumoniae. To be noted: lowest concentration reducing growth by 80% or more, 37 degrees C., 24 hrs; for MIC SPN548: strain SPN548. Here is the method: as §1

Turning to `Cc1[nH]c(C(=O)NC2CN(c3ncc(C(=O)O)s3)C2)c(Cl)c1Cl` [Example 4, 2-(3-{[(3,4-Dichloro-5-methyl-1H-pyrrol-2-yl)carbonyl]amino}azetidin-1-yl)-1,3-thiazole-5-carboxylic acid], the MIC SAU516 in experiment [1] came out at 32 µg/mL (≈ 85.3 µM). The MIC HIN446 in experiment [2] was determined as 2 µg/mL (≈ 5.33 µM). The compound further returned an MIC SPN548 in experiment [3] of 4 µg/mL (≈ 10.7 µM).

Turning to `Cc1nc(N2CC(NC(=O)c3[nH]c(C)c(Cl)c3Cl)C2)sc1C(=O)O` [Example 5, 2-(3-{[(3,4-Dichloro-5-methyl-1H-pyrrol-2-yl)carbonyl]amino}azetidin-1-yl)-4-methyl-1,3-thiazole-5-carboxylic acid], in experiment [1], the MIC SAU516 amounted to 4 µg/mL (≈ 10.3 µM). Further, in experiment [2], the MIC HIN446 came out at 0.5 µg/mL (≈ 1.28 µM). This compound registered an MIC SPN548 in experiment [3] of 0.5 µg/mL (≈ 1.28 µM).

As to `CONC(=O)c1cnc(N2CC(NC(=O)c3[nH]c(C)c(Cl)c3Cl)C2)s1` [Example 8, 2-(3-{[(3,4-Dichloro-5-methyl-1H-pyrrol-2-yl)carbonyl]amino}azetidin-1-yl)-N-methoxy-1,3-thiazole-5-carboxamide], the MIC SAU516 in experiment [1] was 8 µg/mL (≈ 19.8 µM). The MIC HIN446 in experiment [2] is 8 µg/mL (≈ 19.8 µM). The MIC SPN548 in experiment [3] was 1 µg/mL (≈ 2.47 µM).

Regarding `CONC(=O)c1cc(N2CC(NC(=O)c3[nH]c(C)c(Cl)c3Cl)C2)nc(Cl)n1` [Example 9, 2-Chloro-6-(3-{[(3,4-dichloro-5-methyl-1H-pyrrol-2-yl)carbonyl]amino}azetidin-1-yl)-N-methoxypyrimidine-4-carboxamide], in experiment [1], the MIC SAU516 amounted to 2 µg/mL (≈ 4.61 µM). The MIC HIN446 in experiment [2] amounted to 4 µg/mL (≈ 9.22 µM). Besides, in experiment [3] (against Streptococcus pneumoniae), it took 2 µg/mL (≈ 4.61 µM) to inhibit growth (MIC). The MIC SPN548 in experiment [3] was 2 µg/mL (≈ 4.61 µM).

In general, MIC refers to the lowest concentration found to suppress growth.
